Data from ChEMBL document CHEMBL1121865, “Epimeric cis-decahydroquinoline-5-carboxylic acids: effects on gamma-aminobutyric acid uptake and receptor binding in vitro” (J Med Chem, 1981).

Columns and labels:
[1] = target: T1, GABA-A receptor; anion channel (Rattus norvegicus) (UniProt O09028+P15431+P18506+P18508+P19969+P20236+P23574+P23576+P28471+P28473+P30191+P62813+P63079+P63138+Q91ZM7+Q9ES14); details: Membrane, 0.01 uM
Description: Percent displacement of [3H]GABA at Gamma-aminobutyric acid receptor of rat brain membranes at 0.01 uM

[2] = target: GABA transporter (Rattus norvegicus) (UniProt P31647+P23978+P31646+P48056); assay: Percent inhibition of high affinity [3H]GABA uptake into rat brain synaptosomes at 100 uM; assay type: functional, subcellular
Chain of GABA transporter (Rattus norvegicus) (P31646 whole entry, looked up): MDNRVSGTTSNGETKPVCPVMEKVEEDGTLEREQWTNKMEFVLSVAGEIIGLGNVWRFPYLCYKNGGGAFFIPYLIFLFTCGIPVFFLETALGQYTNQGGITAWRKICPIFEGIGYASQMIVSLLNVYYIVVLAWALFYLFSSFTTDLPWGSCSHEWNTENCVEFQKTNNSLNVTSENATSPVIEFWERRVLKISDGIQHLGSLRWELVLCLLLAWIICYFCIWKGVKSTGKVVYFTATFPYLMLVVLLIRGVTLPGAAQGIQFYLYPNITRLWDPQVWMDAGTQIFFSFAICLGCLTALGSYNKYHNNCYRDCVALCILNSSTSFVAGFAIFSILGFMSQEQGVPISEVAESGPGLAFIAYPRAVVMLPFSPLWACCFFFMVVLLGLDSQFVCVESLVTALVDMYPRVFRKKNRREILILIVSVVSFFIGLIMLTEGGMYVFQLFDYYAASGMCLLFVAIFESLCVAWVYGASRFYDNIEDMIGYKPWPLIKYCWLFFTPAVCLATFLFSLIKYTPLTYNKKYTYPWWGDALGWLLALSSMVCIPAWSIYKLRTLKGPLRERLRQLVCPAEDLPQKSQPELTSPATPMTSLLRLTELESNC
Chain of GABA transporter (Rattus norvegicus) (P31647 whole entry, looked up): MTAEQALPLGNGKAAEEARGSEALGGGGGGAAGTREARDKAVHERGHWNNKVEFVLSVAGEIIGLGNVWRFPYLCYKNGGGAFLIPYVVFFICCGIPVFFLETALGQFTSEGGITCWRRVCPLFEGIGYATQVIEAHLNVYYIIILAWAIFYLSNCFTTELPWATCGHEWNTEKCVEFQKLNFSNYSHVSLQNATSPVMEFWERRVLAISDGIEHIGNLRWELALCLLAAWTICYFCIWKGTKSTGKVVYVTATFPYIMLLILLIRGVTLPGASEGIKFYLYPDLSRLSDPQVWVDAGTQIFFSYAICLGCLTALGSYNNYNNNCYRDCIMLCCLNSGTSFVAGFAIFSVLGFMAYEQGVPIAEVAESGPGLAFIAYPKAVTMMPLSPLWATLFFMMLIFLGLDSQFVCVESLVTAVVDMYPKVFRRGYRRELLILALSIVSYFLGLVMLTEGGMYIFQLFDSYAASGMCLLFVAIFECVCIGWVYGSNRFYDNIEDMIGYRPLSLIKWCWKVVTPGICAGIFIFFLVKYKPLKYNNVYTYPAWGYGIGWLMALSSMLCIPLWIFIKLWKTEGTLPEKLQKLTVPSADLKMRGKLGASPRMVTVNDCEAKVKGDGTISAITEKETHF
Chain of GABA transporter (Rattus norvegicus) (P48056 whole entry, looked up): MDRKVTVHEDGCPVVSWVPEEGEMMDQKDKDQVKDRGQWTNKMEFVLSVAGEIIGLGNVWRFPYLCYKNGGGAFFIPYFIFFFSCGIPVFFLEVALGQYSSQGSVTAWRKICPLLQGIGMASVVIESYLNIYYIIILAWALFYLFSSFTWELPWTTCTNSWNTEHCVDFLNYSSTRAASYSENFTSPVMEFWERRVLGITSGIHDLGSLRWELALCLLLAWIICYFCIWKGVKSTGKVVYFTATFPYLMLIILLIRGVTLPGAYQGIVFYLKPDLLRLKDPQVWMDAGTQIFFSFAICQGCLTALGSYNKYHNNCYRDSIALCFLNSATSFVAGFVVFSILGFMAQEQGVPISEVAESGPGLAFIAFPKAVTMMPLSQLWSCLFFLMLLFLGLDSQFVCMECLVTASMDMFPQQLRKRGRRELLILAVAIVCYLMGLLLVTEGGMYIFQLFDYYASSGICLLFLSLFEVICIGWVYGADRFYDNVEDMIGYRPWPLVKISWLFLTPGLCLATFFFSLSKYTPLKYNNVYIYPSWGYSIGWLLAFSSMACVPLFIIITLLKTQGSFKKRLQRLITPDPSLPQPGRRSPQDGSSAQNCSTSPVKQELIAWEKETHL

[3] = target: T1, GABA-A receptor; anion channel (Rattus norvegicus); assay: Percent displacement of [3H]GABA at Gamma-aminobutyric acid receptor of rat brain membranes at 100 uM; assay type: cell membranes; details: Membrane

| SMILES | Displacement [1] | inhibition [2] | Displacement [3] |
| --- | --- | --- | --- |
| NCCCC(=O)O | 48% |  |  |
| NCc1cc(O)no1 | 86% |  |  |
| O=C(O)C1CCCC2NCCCC21 (cis isomer) |  | 20% | 17% |
| O=C(O)C1CCCC2NCCCC21 (stereo in doubt) |  | < 1% | < 5% |
